The values that follow come from PubChem BioAssay (NCI).

Among the test systems are TK-10 renal; SF-295 CNS; HCC-2998 colon; SK-OV-3 ovarian; U251 CNS; SW-620 colon; SF-539 CNS; NCI-H522 lung.
Test in all cases: DTP human tumour cell line panel, 48 h

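Protocol summary: plate cells (96-well), add compound at 5 concentrations, incubate 48 h, interpolate endpoints linearly. GI50 is the concentration that inhibits growth by half. At the TGI there is no net growth.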

Usually GI50 stands for the concentration at which growth is held to half of that of the control. The TGI is the concentration giving total growth inhibition. A low value points to more potent growth arrest. On to `Cc1cc2c(cc1Cl)SC1=NN(C)S(=O)N1S2(=O)=O` (configuration not stated), for which the GI50 in the test on TK-10 renal, in the test on SF-295 CNS, in the test with HCC-2998 colon, in the test with SK-OV-3 ovarian, with U251 CNS and in the test on SW-620 colon was greater than 100 µM throughout. Moreover, the GI50 in the test on SF-539 CNS and in the test with NCI-H522 lung was greater than 100 µM in each case. Further, the TGI in the test on TK-10 renal, in the test with SF-295 CNS, in the test with HCC-2998 colon, in the test with SK-OV-3 ovarian, in the test with U251 CNS and with SW-620 colon was greater than 100 µM each time. In addition, the concentration for total growth inhibition (TGI) in the test with SF-539 CNS and in the test on NCI-H522 lung was greater than 100 µM each time.
Turning to `CC1CN1C(=O)NCCCCCCNC(=O)N1CC1C` (configuration not stated), the TGI in the test on TK-10 renal, with SF-295 CNS, with HCC-2998 colon, in the test on SK-OV-3 ovarian, with U251 CNS and in the test with SW-620 colon was greater than 100 µM in each case. Also, the results for the TGI in the test with SF-539 CNS and with NCI-H522 lung were 98.2 µM and greater than 100 µM, respectively.
In the case of `CCOC(=O)/C(=C\c1ccccc1)C(=O)O`, the TGI with SF-295 CNS, in the test on HCC-2998 colon, in the test with SK-OV-3 ovarian, with U251 CNS, in the test on SW-620 colon and with SF-539 CNS was greater than 100 µM throughout. In addition, in the test on NCI-H522 lung, the TGI is greater than 100 µM.
With `O=C(O)COCC(=O)N(CCOCCN(Cc1ccccc1)C(=O)COCC(=O)O)Cc1ccccc1`, the concentration for total growth inhibition (TGI) in the test with TK-10 renal, in the test on SF-295 CNS, in the test with HCC-2998 colon, in the test on SK-OV-3 ovarian, in the test with U251 CNS and with SW-620 colon was greater than 100 µM in each case. Besides, the TGI in the test on SF-539 CNS and with NCI-H522 lung was greater than 100 µM in each case.
As for `CCOC(=O)/C(C#N)=C/c1[nH]c(C(=O)OCc2ccccc2)c(C)c1C`, the TGI with TK-10 renal, in the test on SF-295 CNS, with HCC-2998 colon, in the test with SK-OV-3 ovarian, in the test with U251 CNS and with SW-620 colon was greater than 100 µM each time. Moreover, the total growth inhibition concentration (TGI) with SF-539 CNS and in the test with NCI-H522 lung was greater than 100 µM throughout.
`O=C(CCc1cc(-c2ccccc2)nc(=S)[nH]1)N(Cc1ccccc1)Cc1ccccc1`: the TGI in the test on TK-10 renal, with SF-295 CNS, with HCC-2998 colon, with SK-OV-3 ovarian, with U251 CNS and with SW-620 colon was greater than 100 µM in each case. The TGI in the test with SF-539 CNS and in the test with NCI-H522 lung was greater than 100 µM in each case.
In the case of `CC1OC(OC2C(OC(=O)[C@]34CCC(C)(C)CC3C3=CCC5[C@@]6(C)C[C@H](O)[C@H](OC7OC(CO)C(O)C(O)C7N)[C@@](C)(C(=O)O)C6CC[C@@]5(C)C3(C)CC4)OCC(O)C2O)C(O)C(O)C1OC1OCC(O)C(O)C1O` (some centres not stated), the TGI with TK-10 renal, in the test on SF-295 CNS, in the test with HCC-2998 colon, in the test with SK-OV-3 ovarian, with U251 CNS and in the test with SW-620 colon was greater than 100 µM in each case. Also, the TGI in the test on SF-539 CNS and in the test with NCI-H522 lung was greater than 100 µM in each case.
On to `O=C(O)C(CS)Nc1c2ccccc2nc2ccccc12` (configuration not stated), for which the TGI in the test with TK-10 renal, in the test on SF-295 CNS, in the test with HCC-2998 colon, in the test on SK-OV-3 ovarian, in the test on U251 CNS and in the test with SW-620 colon was greater than 100 µM each time. Further, the TGI in the test with SF-539 CNS and in the test with NCI-H522 lung was greater than 100 µM throughout.
`N#CSC1CCCCNC1=O` (configuration not stated): the TGI with TK-10 renal is 30.7 µM; in the test on SF-295 CNS it was 30.7 µM; in the test with HCC-2998 colon, 32.4 µM; in the test with SK-OV-3 ovarian it was 21.9 µM; with U251 CNS it was 42.6 µM; with SF-539 CNS it was 26.5 µM. The same compound registered a TGI with NCI-H522 lung of 21.3 µM.
For `NC12CC3CC(C1)CC(C(=O)O)(C3)C2`, the TGI with TK-10 renal, in the test on SF-295 CNS, in the test with HCC-2998 colon, in the test on SK-OV-3 ovarian, with U251 CNS and with SW-620 colon was greater than 100 µM each time. In addition, the TGI in the test on SF-539 CNS and in the test with NCI-H522 lung was greater than 100 µM throughout.
For the compound `O=C1NC(=O)C(CCC(=O)c2ccc3ccccc3c2)C(=O)N1`, the TGI with TK-10 renal, in the test with SF-295 CNS, with HCC-2998 colon, in the test with SK-OV-3 ovarian, in the test with U251 CNS and in the test on SW-620 colon was greater than 100 µM in each case. In addition, the TGI is greater than 100 µM with SF-539 CNS and 38.5 µM with NCI-H522 lung.
Consider `COc1ccc(-c2nc(-c3nc4ccc(Cl)cc4[nH]3)c3ccccn23)cc1`, for which the GI50 is 2.01 µM in the test on TK-10 renal; 18.6 µM in the test on HCC-2998 colon; 2.24 µM in the test with SK-OV-3 ovarian; 3.16 µM with U251 CNS; 4.07 µM in the test with SW-620 colon; 1.76 µM in the test with SF-539 CNS. Also, the GI50 with NCI-H522 lung is 4.24 µM. In addition, the TGI was 5.11 µM in the test with TK-10 renal; greater than 100 µM in the test on HCC-2998 colon; 4.99 µM in the test on SK-OV-3 ovarian; 11.3 µM in the test with U251 CNS; 22.5 µM in the test with SW-620 colon; 3.61 µM in the test with SF-539 CNS. In the test on NCI-H522 lung, the TGI is 18.4 µM.
As for `COC(=O)Nc1nc2ccc(Oc3ccc(NC(=O)Nc4cc(C(F)(F)F)ccc4F)cc3)cc2s1`, the GI50 with TK-10 renal was greater than 25 µM; in the test on SF-295 CNS, 24.8 µM; with HCC-2998 colon, greater than 25 µM; in the test on SK-OV-3 ovarian it was greater than 25 µM; in the test with U251 CNS it was 13.6 µM; in the test on SW-620 colon, 9.85 µM. Further, the GI50 with SF-539 CNS and in the test on NCI-H522 lung was greater than 25 µM throughout. The TGI in the test with TK-10 renal, with SF-295 CNS, in the test on HCC-2998 colon, in the test on SK-OV-3 ovarian, in the test with U251 CNS and in the test with SW-620 colon was greater than 25 µM in each case. Besides, the TGI in the test on SF-539 CNS and with NCI-H522 lung was greater than 25 µM in each case.
With `CC1(C)OC2=C(CC1Br)C(=O)C(=O)c1ccccc12` (configuration not stated), the GI50 was 1.99 µM with TK-10 renal; 1.69 µM in the test with HCC-2998 colon; 1.96 µM in the test on SK-OV-3 ovarian; 1.87 µM in the test on U251 CNS; 1.91 µM in the test with SW-620 colon; 1.82 µM with SF-539 CNS. Besides, the GI50 with NCI-H522 lung was 1.62 µM. Further, the TGI stood at 3.45 µM in the test with TK-10 renal; 3.12 µM in the test on HCC-2998 colon; 3.47 µM in the test with SK-OV-3 ovarian; 3.87 µM with U251 CNS; 3.49 µM in the test with SW-620 colon; 3.37 µM with SF-539 CNS. The compound further showed a TGI in the test with NCI-H522 lung of 3.03 µM.
Regarding `O=C(NC12CC3CC(CC(F)(C3)C1)C2)c1ccccc1`, the concentration for total growth inhibition (TGI) in the test with TK-10 renal, in the test with HCC-2998 colon, in the test with SK-OV-3 ovarian, in the test with U251 CNS, with SW-620 colon and with SF-539 CNS was greater than 100 µM throughout. The TGI in the test on NCI-H522 lung was greater than 100 µM.
With `O=C(Nc1ccc(-c2nc(N3CCOCC3)c3cccn3n2)cc1)Nc1cccnc1`, the GI50 with SF-295 CNS is 0.102 µM; with HCC-2998 colon, 0.253 µM; with SK-OV-3 ovarian it was 0.0987 µM; with U251 CNS, 0.18 µM; with SW-620 colon, 0.0524 µM; with SF-539 CNS, 0.0396 µM. For the same compound, the GI50 with NCI-H522 lung was 0.125 µM. The TGI with SF-295 CNS was 0.581 µM; with HCC-2998 colon, greater than 100 µM; in the test on SK-OV-3 ovarian it was 0.596 µM; with U251 CNS, greater than 100 µM; with SW-620 colon, greater than 100 µM; with SF-539 CNS, 0.296 µM. Also, in the test on NCI-H522 lung, the TGI was greater than 100 µM.
In the case of `CNC(=O)C1CCc2nnc(-c3ccccc3)n21` (configuration not stated), the TGI in the test on TK-10 renal, in the test with HCC-2998 colon, with SK-OV-3 ovarian, in the test on U251 CNS, in the test with SW-620 colon and in the test with SF-539 CNS was greater than 100 µM throughout. Further, the TGI in the test with NCI-H522 lung is greater than 100 µM.
For `CN(C)/N=C(/CC(O)(C(F)(F)F)C(F)(F)F)c1ccc([N+](=O)[O-])cc1`, the TGI in the test with SF-295 CNS, in the test with HCC-2998 colon, in the test with SK-OV-3 ovarian, in the test on U251 CNS, with SW-620 colon and in the test with SF-539 CNS was greater than 100 µM each time. In addition, in the test on NCI-H522 lung, the TGI was greater than 100 µM.
For `Cc1cccc(C(C)C)c1NC(=O)/C(Cc1c([N+](=O)[O-])cccc1[N+](=O)[O-])=N/NC(=O)CC#N`, the TGI with TK-10 renal, with SF-295 CNS, in the test with HCC-2998 colon, with SK-OV-3 ovarian, with SW-620 colon and with SF-539 CNS was greater than 100 µM each time. In addition, the TGI in the test on NCI-H522 lung is greater than 100 µM.
Regarding `O=C(CC1(O)C(=O)Nc2ccccc21)c1ccncc1` (configuration not stated), the TGI in the test with SF-295 CNS, with HCC-2998 colon, in the test on SK-OV-3 ovarian, in the test on U251 CNS, with SW-620 colon and in the test with SF-539 CNS was greater than 100 µM in each case. The same compound gave a total growth inhibition concentration (TGI) in the test with NCI-H522 lung greater than 100 µM.
